Values joined by “and” are separate entries in the source; they are usually repeats but may differ in a detail not shown here. Equal entries are not always repeated. Where two headings read alike, the source gives them in different places.
How the values were obtained:
[1] = biological target: T1, AHR (Mus musculus, UniProt P30561); assay: In vitro assay 3: antagonism in mouse cell line (AHR transactivation, firefly luciferase reporter, kynurenic acid prestimulated); type: cell-based; conditions: 200 μM kynurenic acid, 20 hours, read-out: AHR Antagonism Mouse IC50
T1 sequence (P30561 1-848 P471L/N533S/M589L): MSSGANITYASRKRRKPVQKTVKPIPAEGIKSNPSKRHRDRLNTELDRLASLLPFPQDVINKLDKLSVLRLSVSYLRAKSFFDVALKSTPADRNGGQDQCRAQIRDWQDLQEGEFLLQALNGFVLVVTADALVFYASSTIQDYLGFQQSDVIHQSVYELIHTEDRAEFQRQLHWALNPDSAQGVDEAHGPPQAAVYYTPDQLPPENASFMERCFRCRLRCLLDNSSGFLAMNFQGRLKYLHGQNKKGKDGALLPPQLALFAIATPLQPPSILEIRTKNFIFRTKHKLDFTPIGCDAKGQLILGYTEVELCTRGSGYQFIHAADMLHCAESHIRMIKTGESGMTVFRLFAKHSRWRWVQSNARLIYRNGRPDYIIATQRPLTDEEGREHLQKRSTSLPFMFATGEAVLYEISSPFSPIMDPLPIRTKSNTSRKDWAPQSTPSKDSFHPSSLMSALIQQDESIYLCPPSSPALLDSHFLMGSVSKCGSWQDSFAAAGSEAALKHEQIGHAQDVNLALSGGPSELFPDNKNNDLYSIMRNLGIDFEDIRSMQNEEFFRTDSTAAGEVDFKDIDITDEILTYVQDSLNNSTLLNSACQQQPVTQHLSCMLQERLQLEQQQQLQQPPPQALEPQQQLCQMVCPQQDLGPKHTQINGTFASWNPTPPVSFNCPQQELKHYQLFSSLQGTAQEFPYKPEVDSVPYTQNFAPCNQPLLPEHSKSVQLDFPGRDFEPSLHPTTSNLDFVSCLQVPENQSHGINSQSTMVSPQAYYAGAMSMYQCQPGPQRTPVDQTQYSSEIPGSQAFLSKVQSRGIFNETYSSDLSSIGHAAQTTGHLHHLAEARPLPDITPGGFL
How it was run: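 Luminescence from an AHR-dependent DRE-luciferase reporter, stably integrated in mouse cells, quantifies blockade of kynurenic acid-driven activation. Unstimulated cells mark maximal inhibition; normalization uses both control types, and multiply tested compounds carry mean or median values.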

[2] = biological target: T2, AHR (Homo sapiens, UniProt P35869); assay: In vitro assay 1: antagonism in human cell line (AHR transactivation, firefly luciferase reporter, kynurenic acid prestimulated); type: cell-based; conditions: AHR Antagonism Human IC50 [M]
T2 construct: U87 MG glioblastoma cells (ATCC #HTB-14) endogenously expressing AHR; endogenous in cells; host or cells: U87 MG glioblastoma cells (ATCC #HTB-14)
T2 sequence (P35869 11-848): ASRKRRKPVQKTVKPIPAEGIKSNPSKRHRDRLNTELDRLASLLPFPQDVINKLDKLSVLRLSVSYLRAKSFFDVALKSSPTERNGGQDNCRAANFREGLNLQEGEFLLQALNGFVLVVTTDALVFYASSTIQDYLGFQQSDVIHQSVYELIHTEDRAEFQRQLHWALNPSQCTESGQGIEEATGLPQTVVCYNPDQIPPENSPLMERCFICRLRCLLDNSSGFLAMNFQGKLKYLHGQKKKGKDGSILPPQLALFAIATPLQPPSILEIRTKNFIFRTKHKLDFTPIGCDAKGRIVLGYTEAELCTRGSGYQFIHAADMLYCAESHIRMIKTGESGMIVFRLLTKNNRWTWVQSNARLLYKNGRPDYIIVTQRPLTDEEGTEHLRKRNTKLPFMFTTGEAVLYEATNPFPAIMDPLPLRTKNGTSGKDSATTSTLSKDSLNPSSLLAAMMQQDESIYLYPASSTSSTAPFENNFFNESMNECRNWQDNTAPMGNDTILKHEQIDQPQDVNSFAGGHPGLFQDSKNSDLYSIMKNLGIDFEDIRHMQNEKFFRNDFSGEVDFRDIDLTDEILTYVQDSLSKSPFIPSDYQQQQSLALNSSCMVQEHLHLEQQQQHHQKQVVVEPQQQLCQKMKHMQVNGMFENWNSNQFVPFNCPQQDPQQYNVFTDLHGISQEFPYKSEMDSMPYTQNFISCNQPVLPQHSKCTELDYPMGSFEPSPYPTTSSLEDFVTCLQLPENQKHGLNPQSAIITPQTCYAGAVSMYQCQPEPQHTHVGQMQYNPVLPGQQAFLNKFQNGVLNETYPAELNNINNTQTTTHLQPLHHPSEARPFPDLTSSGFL
How it was run: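 Antagonism measured as loss of kynurenic acid-driven firefly luciferase from DRE reporter in stably transfected U87 MG cells; constitutive Renilla signal monitors cytotoxicity. Positive/negative control normalization, staurosporine 5 μM with 150 μM kynurenic acid as inhibition control; replicates given as mean or median.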

[3] = Hepa 1c1c7 cells, firefly luciferase reporter

IC50 [1, 3] [nM]	IC50 ([2]; firefly luciferase reporter)	IC50 ([1]; mouse Hepa 1c1c7 cells) [nM]	IC50 [2] [M]	Structure (SMILES)
43.3	> 5.71e-06 M and 4.65e-06 M and > 2e-06 M			CCCNC(=O)[C@H](C)Nc1nc2c(Br)cccc2c2nc(-c3ccc(Cl)cc3OC(F)(F)F)nn12 [Example 811, N^2-{7-bromo-2-[4-chloro-2-(trifluoromethoxy)phenyl][1,2,4]triazolo[1,5-c]quinazolin-5-yl}-N-propyl-L-alaninamide]
		2760	3.39e-06	Cc1ccc2nc(N[C@@H]3CCCCNC3=O)n3nc(-c4cnn(C)c4)nc3c2c1C(F)F [Example 404, (3R)-3-{[10-(difluoromethyl)-9-methyl-2-(1-methyl-1H-pyrazol-4-yl)[1,2,4]triazolo[1,5-c]quinazolin-5-yl]amino}azepan-2-one]
0.475	3.72e-10 M			CCn1cc(-c2nc3c4cccc(Br)c4nc(N[C@@H]4CCCCNC4=O)n3n2)c(C)n1 [Example 825, (3R)-3-{[7-bromo-2-(1-ethyl-3-methyl-1H-pyrazol-4-yl)[1,2,4]triazolo[1,5-c]quinazolin-5-yl]amino}azepan-2-one]
66.8	5.75e-08 M			C[C@@H](Nc1nc2c(Br)cccc2c2nc(-c3cnn(C)c3)nn12)C(=O)NCCN1CCN(C(=O)OC(C)(C)C)CC1 [Example 891, tert-butyl 4-[2-({N-[7-bromo-2-(1-methyl-1H-pyrazol-4-yl)[1,2,4]triazolo[1,5-c]quinazolin-5-yl]-D-alanyl}amino)ethyl]piperazine-1-carboxylate]
		27.6	2.09e-08	COc1cccc(-c2nc3c4cc(F)ccc4nc(NC4CCNC4=O)n3n2)c1 (single isomer, unassigned) [Example 186, 3-{[9-fluoro-2-(3-methoxyphenyl)[1,2,4]triazolo[1,5-c]quinazolin-5-yl]amino}pyrrolidin-2-one]
		131	7.16e-06	CC[C@@H](Nc1nc2ccccc2c2nc(-c3ccccc3S(C)(=O)=O)nn12)C(N)=O [Example 451, (2R)-2-({2-[2-(methanesulfonyl)phenyl][1,2,4]triazolo[1,5-c]quinazolin-5-yl}amino)butanamide]
		240	5.61e-07	CC[C@@H](Nc1nc2ccccc2c2nc(-c3cnccn3)nn12)C(N)=O [Example 691, (2R)-2-{[2-(pyrazin-2-yl)[1,2,4]triazolo[1,5-c]quinazolin-5-yl]amino}butanamide]
		62.8	9.66e-09	COc1cccc(-c2nc3c4c(F)cccc4nc(N[C@H](C)C(N)=O)n3n2)c1 [Example 184, N^2-[10-fluoro-2-(3-methoxyphenyl)[1,2,4]triazolo[1,5-c]quinazolin-5-yl]-D-alaninamide]
1.81	7.6e-10 M			Cn1cc(-c2nc3c4cccc(Br)c4nc(N[C@@H]4CSCCNC4=O)n3n2)cn1 [Example 837, (6S)-6-{[7-bromo-2-(1-methyl-1H-pyrazol-4-yl)[1,2,4]triazolo[1,5-c]quinazolin-5-yl]amino}-1,4-thiazepan-5-one]
		49.8	6.55e-08	COC(=O)c1cccc2nc(N[C@@H]3CCCCNC3=O)n3nc(-c4ccc(OC)cc4)nc3c12 [Example 252, methyl 2-(4-methoxyphenyl)-5-{[(3R)-2-oxoazepan-3-yl]amino}[1,2,4]triazolo[1,5-c]quinazoline-10-carboxylate]
		1.45	7.41e-10	COc1ccc(-c2nc3c4cccc(F)c4nc(N[C@@H]4CCCCNC4=O)n3n2)cc1 [Example 138, (3R)-3-{[7-fluoro-2-(4-methoxyphenyl)[1,2,4]triazolo[1,5-c]quinazolin-5-yl]amino}azepan-2-one]
		72.2	2.73e-07	N#Cc1cccc(-c2nc3c4ccccc4nc(N[C@@H]4CCCNC4=O)n3n2)c1 [Example 384, 3-(5-{[(3R)-2-oxopiperidin-3-yl]amino}[1,2,4]triazolo[1,5-c]quinazolin-2-yl)benzonitrile]
		234	2.14e-07	Cn1cc(-c2nc3c4ccccc4nc(N[C@H]4CCCCNC4=O)n3n2)cn1 [Example 14, (3S)-3-{[2-(1-methyl-1H-pyrazol-4-yl)[1,2,4]triazolo[1,5-c]quinazolin-5-yl]amino}azepan-2-one]
		0.428	1.82e-09	CC(C)[C@@H](Nc1nc2ccccc2c2nc(-c3ccccc3)nn12)C(N)=O [Example 3, N^2-(2-phenyl[1,2,4]triazolo[1,5-c]quinazolin-5-yl)-D-valinamide]
		85.7	1.37e-06	O=C1NCCNC[C@H]1Nc1nc2ccccc2c2nc(-c3ccccc3C(F)(F)F)nn12 [Example 262, (6R)-6-({2-[2-(trifluoromethyl)phenyl][1,2,4]triazolo[1,5-c]quinazolin-5-yl}amino)-1,4-diazepan-5-one]
		171	2.8e-07	O=C1NCCCC[C@H]1Nc1nc2ccccc2c2nc(-c3cnn(CCCO)c3)nn12 [Example 598, (3R)-3-({2-[1-(3-hydroxypropyl)-1H-pyrazol-4-yl][1,2,4]triazolo[1,5-c]quinazolin-5-yl}amino)azepan-2-one]
10.9	3.93e-08 M			COCCNC(=O)[C@H](Nc1nc2c(Br)cccc2c2nc(-c3cnn(C)c3)nn12)C(C)C [Example 929, N^2-[7-bromo-2-(1-methyl-1H-pyrazol-4-yl)[1,2,4]triazolo[1,5-c]quinazolin-5-yl]-N-(2-methoxyethyl)-D-valinamide]
		3.91	5.89e-08	CCC[C@@H](Nc1nc2ccccc2c2nc(-c3ccccc3OC(F)(F)F)nn12)C(=O)NC [Example 464, N-methyl-N^2-{2-[2-(trifluoromethoxy)phenyl][1,2,4]triazolo[1,5-c]quinazolin-5-yl}-D-norvalinamide]
		84.7	1.35e-07	CS(=N)(=O)c1ccc(-c2nc3c4ccccc4nc(N[C@@H]4CCCCNC4=O)n3n2)cc1 (single isomer, unassigned) [Example 307]
		134	1.64e-07	CS(=O)(=O)c1ccc(-c2nc3c4ccccc4nc(N[C@@H]4CNCCNC4=O)n3n2)cc1 [Example 714, (6R)-6-({2-[4-(methanesulfonyl)phenyl][1,2,4]triazolo[1,5-c]quinazolin-5-yl}amino)-1,4-diazepan-5-one]
		14.8	1.13e-08	CS(=O)(=O)c1ccc(-c2nc3c4cccc(Br)c4nc(N[C@@H]4CNCCNC4=O)n3n2)cc1 [Example 715, (6R)-6-({7-bromo-2-[4-(methanesulfonyl)phenyl][1,2,4]triazolo[1,5-c]quinazolin-5-yl}amino)-1,4-diazepan-5-one]
		27	1.24e-07	CN1CC[C@@H](Nc2nc3ccccc3c3nc(-c4ccsc4)nn23)C1=O [Example 345, (3R)-1-methyl-3-{[2-(thiophen-3-yl)[1,2,4]triazolo[1,5-c]quinazolin-5-yl]amino}pyrrolidin-2-one]

Reference: patent publication US20230113037A1 (Bayer Aktiengesellschaft, priority 2019, published 2023)
